Assays:
[1] = tested on: catechol-o-methyl transferase (COMT); test: Substrate for catechol-o-methyl transferase (COMT); format: in vitro ADME; conditions: EDLF described in the present invention
[2] = biological target: T1, (Na^+ +K^+)ATPase (Canis lupus familiaris, UniProt P50997); test: Inhibition of (Na^+ +K^+)ATPase activity (coupled optical assay); format: biochemical, dog; conditions: inhibition of (Na^+ +K^+)ATPase activity
T1 construct: (Na^+ +K^+)ATPase was purified from the outer medulla of dog kidney; from tissue; host or cells: dog kidney outer medulla, purified membrane enzyme
Experimental: More specifically, (Na^+ +K^+)ATPase was purified from the outer medulla of dog kidney using the angle rotor procedure (Jorgensen, P.L., Biochim. Biophys. Acta, 356:36-52 (1974)) and stored frozen at -60° C. at 1.0 mg/ml in 25 mM imidazole-HCl (pH 7.5) and 1.0 mM EDTA, in small aliquots. (Na^+ +K^+)ATPase activity was determined at 37° C. from rate measurements in 1.0 ml of coupled optical assay mixture comprising 20 mM KCl, 100 mM NaCl, 4.5 mM MgSO4, 5.0 mM EGTA, 3.0 mM ATP-Na2, 1.2 mM phosphoenol-pyruvate-tricyclohexylammonium, 0.3 mM NADH, 100 mM TES-Tris (ph 7.4), 5.0 units of lactate dehydrogenase, and 5.0 units of pyruvate kinase (Hamlyn, J.M. et al, Nature, 300:650-652 (1982)). (Na^+ +K^+)ATPase activity was 99% ouabain-inhibitable with activities of 10-18 μmol/min/mg of membrane protein. Maximally effective concentrations of digitalis-like activity had no effect on the enzymatic components of the coupled optical assay as determined by inspection of rates in response to addition of 20-50 μM ADP. The maximal capacity of the coupled optical assay was at least 500-2000 fold greater than the typical maximal hydrolytic rate of the (Na^+ +K^+)ATPase and was not rate limiting under any assay condition described herein.
The inhibition of (Na^+ +K^+)ATPase was carried out as described above.

[3] = tested on: left atria from guinea pigs; test: Inotropic properties in left atria from guinea pigs; set-up: species or system guinea pig
Experimental: Atria were incubated at 37° C. in phosphate buffered saline comprising 130 mM NaCl, 5.4 mM KCl, 1.8 mM MgCl2, 0.4 mM NaH2 PO4, 19 mM NaHCO3 and 5.4 g of glucose (pH 7.3-7.4), and gassed with 95% O2 /5% CO2. Tissues were stimulated at 1 Hz with twice threshold square pulses (0.8 to 1.0 V) of 0.7 to 1.2 msec duration. Resting tension was optimized for maximum isometric force generation. Control records were obtained once the phasic force was stabilized. […] For comparison, 200 nM plant ouabain evoked an inotropic response of 311±41% (N=4 experiments) which returned to normal with a half-time of approximately 5 min upon washout.

[4] = tested on: antibodies having binding specificity for ouabain; test: Competition ELISA for binding to antibodies having binding specificity for ouabain; set-up: species or system rabbit
Experimental: The competition for binding to antibodies having binding specificity for ouabain was carried out by employing polyclonal antisera having titers >10,000 generated against ouabain in rabbits as described in Example 2 below. […] A competition ELISA was carried out as follows:
Microtiter plates were coated with 50 μl of a 1.0 ng/ml solution of Conjugate 4. Following washes with wash buffer comprising 0.9% (w/v) NaCl and 0.5% (v/v) Tween 20 (hereinafter "wash buffer"), residual sites were blocked with buffer comprising 136 mM NaCl, 1.46 mM KH2 PO4, 0.8 mM Na2 HPO4, 0.028 mM thimerosal, 0.5% (v/v) Tween 20, and 1.0% (w/v) BSA (pH 7.4). Known amounts of free ouabain or unknown samples were introduced followed by the addition of ouabain antisera at an overall dilution of 1:2×10^6. Incubations at 23° C. for 1 hr were terminated by repeated washing with wash buffer. Subsequently, a second incubation at […] for 1hr was performed with a 1:10^3 dilution of goat anti-rabbit IgG-peroxidase conjugate (Boehringer Mannheim, Indianapolis, Ind.). Following extensive washing with wash buffer, equal parts of 3, 3', 5, 5'-tetramethylbenzindine and hydrogen peroxide (Kirkegaard and Perry, Gaitheresburg, Md.) were added and incubated at 23° C. for 15 min. Color development was terminated by addition of 1.0 M H3 PO4 and read at 450 nm with a plate reader. […] Each data point is the mean ± S.E.M. All lines were fitted by nonlinear regression to a sigmoidal function.

[5] = tested on: rings of aorta from guinea pigs; test: Vasoactive properties in rings of aorta from guinea pigs; set-up: species or system guinea pig
Experimental: The aortic rings were incubated at 37° C. in phosphate buffered saline. The rings were submaximally contracted for 3 to 7 min, every 35 min, with 0.2 or 1.0 μM histamine. […] The apparent half-time for washout of the augmented tension response in the presence of plant ouabain was also much greater than 60 min.

[6] = 6.0 N HCl at 110° C.; cited from earlier work

CC1OC(OC2CC(O)C3(CO)C4C(O)CC5(C)C(C6=CC(=O)OC6)CCC5(O)C4CCC3(O)C2)C(O)C(O)C1O (stereo not shown) [human ouabain]
substrate for COMT [1]: not a substrate for COMT
Hill coefficient [2]: -1.28
Kd ([2]; read-out: calculated apparent Kd value, 37° C.): 13.9 nM
time to plateau of increase in peak force ([3]; 85 nM): 34 min
activation at 0.17 µM ([3]; Cavia porcellus, read-out: developed force above the control): 294 ± 28%
apparent half-time for washout of the inotropic response ([3]; upon washout): approximately 5 min
Hill coefficient ([4]; competition ELISA): -0.65
Kd ([4]; competition ELISA, antisera 1:2×10^6, read-out: calculated apparent Kd value): 1.6 nM
cross-reaction with antibodies having binding specificity for ouabain ([4]; within experimental error): 100%
effect on baseline tension ([5]; 170 nM human ouabain, 200 nM plant ouabain): no effect
activity at 0.17 µM ([5]; Cavia porcellus, 0.5 h, read-out: histamine-evoked tension, % of control): 150 ± 14%
apparent half-time for washout of the augmented tension response ([5]; upon washout): greater than 60 min
rate of loss of inhibitory activity compared with ouabain [6]: significantly greater

— patent US5164296A, “Assay methods involving ouabain” (priority 1990, dated 1992)
